{"source": "paper PMC9403976", "about": "“Elucidating the path to Plasmodium prolyl-tRNA synthetase inhibitors that overcome halofuginone resistance” (Nature Communications, 2022)", "key": {"[1]": {"target": "T1, PfcProRS (Plasmodium falciparum, UniProt Q8I5R7)", "T1 construct": "made in house; host or cells: E. coli SoluBL-21", "T1 sequence (Q8I5R7 249-746)": "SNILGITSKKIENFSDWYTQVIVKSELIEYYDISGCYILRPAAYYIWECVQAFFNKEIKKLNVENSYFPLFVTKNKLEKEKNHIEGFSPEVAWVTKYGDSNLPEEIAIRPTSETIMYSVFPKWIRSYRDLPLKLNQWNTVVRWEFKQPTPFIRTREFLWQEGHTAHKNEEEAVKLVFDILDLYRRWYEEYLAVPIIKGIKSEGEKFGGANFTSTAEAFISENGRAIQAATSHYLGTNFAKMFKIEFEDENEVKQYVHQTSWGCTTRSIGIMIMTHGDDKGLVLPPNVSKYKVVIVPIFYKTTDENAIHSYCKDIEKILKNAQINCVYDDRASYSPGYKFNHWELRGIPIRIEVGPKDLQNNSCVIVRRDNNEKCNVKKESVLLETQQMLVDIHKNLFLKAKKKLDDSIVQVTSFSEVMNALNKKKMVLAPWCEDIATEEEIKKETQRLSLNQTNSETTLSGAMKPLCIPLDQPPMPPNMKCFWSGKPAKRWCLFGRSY", "assay_type": "binding", "details": "single replicates"}, "[2]": {"target": "HsProRS (Homo sapiens, UniProt P07814)", "sequence (P07814 996-1512)": "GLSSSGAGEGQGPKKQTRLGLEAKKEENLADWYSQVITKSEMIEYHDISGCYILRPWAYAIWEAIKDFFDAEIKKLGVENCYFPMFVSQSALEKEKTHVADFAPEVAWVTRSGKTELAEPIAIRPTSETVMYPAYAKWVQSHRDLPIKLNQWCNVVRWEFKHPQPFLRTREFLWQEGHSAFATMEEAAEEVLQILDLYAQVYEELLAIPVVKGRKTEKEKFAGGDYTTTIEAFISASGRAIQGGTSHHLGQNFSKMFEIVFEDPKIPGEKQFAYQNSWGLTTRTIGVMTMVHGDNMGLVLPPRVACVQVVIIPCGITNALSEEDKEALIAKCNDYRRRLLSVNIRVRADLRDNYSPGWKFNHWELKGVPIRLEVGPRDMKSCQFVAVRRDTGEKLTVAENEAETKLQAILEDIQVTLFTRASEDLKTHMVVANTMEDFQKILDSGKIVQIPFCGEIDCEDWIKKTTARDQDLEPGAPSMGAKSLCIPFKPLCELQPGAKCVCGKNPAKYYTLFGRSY", "assay": "TR-FRET ligand displacement assay with tracer MAT379 (CoraFluor-1-Halo and anti-His6 antibody formats)", "assay_type": "binding", "parameters": "made in house; host or cells: E. coli SoluBL-21", "details": "for TR-FRET dose-response, normalized signal (SI Fig 11): individual replicates"}}, "note": "Values joined by “and” are separate entries in the source; they are usually repeats but may differ in a detail not shown here. Equal values may be shown once. Read-outs that look alike come from different tables or passages of the source."}
{"smiles": "CC(C)N(C(=O)Nc1nccnc1C(=O)NC1Cc2ccccc2C1)C(C)C", "note": "[compound 5]", "values": [{"measurement": "dose-response signal (normalized), SI Fig 8", "setting": "[1]; Log[inhibitor] (M) -5.000", "value": "1.47E-01 and 1.35E-01 and 1.83E-01"}, {"measurement": "dose-response signal (normalized), SI Fig 8", "setting": "[1]; Log[inhibitor] (M) -5.301", "value": "3.88E-01 and 4.48E-01 and 4.36E-01"}, {"measurement": "dose-response signal (normalized), SI Fig 8", "setting": "[1]; Log[inhibitor] (M) -5.601", "value": "7.44E-01 and 8.07E-01 and 7.69E-01"}, {"measurement": "dose-response signal (normalized), SI Fig 8", "setting": "[1]; Log[inhibitor] (M) -5.904", "value": "8.45E-01 and 8.57E-01 and 9.58E-01"}, {"measurement": "dose-response signal (normalized), SI Fig 8", "setting": "[1]; Log[inhibitor] (M) -6.208", "value": "8.74E-01 and 8.91E-01 and 9.30E-01"}, {"measurement": "dose-response signal (normalized), SI Fig 8", "setting": "[1]; Log[inhibitor] (M) -6.509", "value": "9.93E-01 and 1.13E+00 and 1.03E+00"}, {"measurement": "dose-response signal (normalized), SI Fig 8", "setting": "[1]; Log[inhibitor] (M) -6.796", "value": "1.01E+00 and 9.89E-01 and 1.13E+00"}, {"measurement": "dose-response signal (normalized), SI Fig 8", "setting": "[1]; Log[inhibitor] (M) -7.108", "value": "9.82E-01 and 9.95E-01 and 1.21E+00"}, {"measurement": "dose-response signal (normalized), SI Fig 8", "setting": "[1]; Log[inhibitor] (M) -7.409", "value": "1.20E+00 and 1.06E+00 and 1.08E+00"}, {"measurement": "dose-response signal (normalized), SI Fig 8", "setting": "[1]; Log[inhibitor] (M) -7.710", "value": "1.11E+00 (2×) and 1.12E+00"}, {"measurement": "dose-response signal (normalized), SI Fig 8", "setting": "[1]; Log[inhibitor] (M) -8.000", "value": "1.01E+00 and 1.06E+00 and 1.07E+00"}, {"measurement": "dose-response signal (normalized), SI Fig 8", "setting": "[1]; Log[inhibitor] (M) -8.301", "value": "9.64E-01 and 1.10E+00 and 1.14E+00"}, {"measurement": "dose-response signal (normalized), SI Fig 8", "setting": "[1]; Log[inhibitor] (M) -8.602", "value": "8.54E-01 and 1.04E+00 and 1.07E+00"}, {"measurement": "dose-response signal (normalized), SI Fig 8", "setting": "[1]; Log[inhibitor] (M) -9.000", "value": "9.25E-01 and 9.26E-01 and 1.03E+00"}, {"measurement": "dose-response signal (normalized), SI Fig 8", "setting": "[1]; Log[inhibitor] (M) -9.301", "value": "8.80E-01 and 9.99E-01 and 1.04E+00"}, {"measurement": "Kd", "setting": "[2]; HsProRS - best Kd, SI Fig 16a, values on -log scale", "value": 1020, "unit": "nM"}, {"measurement": "normalized TR-FRET ligand displacement signal, dose-response replicates (SI Fig 6)", "setting": "[2]; Log[inhibitor] (M) -5.000", "value": "8.71E-01 and 7.50E-01 and 6.79E-01"}, {"measurement": "TR-FRET dose-response, normalized signal (SI Fig 11)", "setting": "[2]; Log[inhibitor] (M) -5.000", "value": "6.19E-01 and 6.48E-01 and 6.40E-01"}, {"measurement": "normalized TR-FRET ligand displacement signal, dose-response replicates (SI Fig 6)", "setting": "[2]; Log[inhibitor] (M) -5.301", "value": "9.58E-01 and 7.89E-01 and 8.27E-01"}, {"measurement": "TR-FRET dose-response, normalized signal (SI Fig 11)", "setting": "[2]; Log[inhibitor] (M) -5.301", "value": "7.58E-01 and 7.59E-01 and 7.76E-01"}, {"measurement": "normalized TR-FRET ligand displacement signal, dose-response replicates (SI Fig 6)", "setting": "[2]; Log[inhibitor] (M) -5.601", "value": "8.37E-01 and 1.05E+00 and 1.03E+00"}, {"measurement": "TR-FRET dose-response, normalized signal (SI Fig 11)", "setting": "[2]; Log[inhibitor] (M) -5.601", "value": "8.37E-01 and 8.60E-01 and 8.59E-01"}, {"measurement": "normalized TR-FRET ligand displacement signal, dose-response replicates (SI Fig 6)", "setting": "[2]; Log[inhibitor] (M) -5.904", "value": "1.09E+00 and 1.03E+00 and 9.64E-01"}, {"measurement": "TR-FRET dose-response, normalized signal (SI Fig 11)", "setting": "[2]; Log[inhibitor] (M) -5.904", "value": "9.61E-01 and 8.97E-01 and 9.02E-01"}, {"measurement": "normalized TR-FRET ligand displacement signal, dose-response replicates (SI Fig 6)", "setting": "[2]; Log[inhibitor] (M) -6.208", "value": "9.53E-01 and 8.96E-01 and 9.38E-01"}, {"measurement": "TR-FRET dose-response, normalized signal (SI Fig 11)", "setting": "[2]; Log[inhibitor] (M) -6.208", "value": "9.36E-01 and 9.49E-01 and 9.17E-01"}, {"measurement": "normalized TR-FRET ligand displacement signal, dose-response replicates (SI Fig 6)", "setting": "[2]; Log[inhibitor] (M) -6.509", "value": "9.42E-01 and 9.99E-01 and 1.01E+00"}, {"measurement": "TR-FRET dose-response, normalized signal (SI Fig 11)", "setting": "[2]; Log[inhibitor] (M) -6.509", "value": "8.96E-01 and 8.83E-01 and 9.32E-01"}, {"measurement": "normalized TR-FRET ligand displacement signal, dose-response replicates (SI Fig 6)", "setting": "[2]; Log[inhibitor] (M) -6.796", "value": "1.20E+00 (2×) and 1.11E+00"}, {"measurement": "TR-FRET dose-response, normalized signal (SI Fig 11)", "setting": "[2]; Log[inhibitor] (M) -6.796", "value": "9.19E-01 and 9.16E-01 and 9.35E-01"}, {"measurement": "normalized TR-FRET ligand displacement signal, dose-response replicates (SI Fig 6)", "setting": "[2]; Log[inhibitor] (M) -7.108", "value": "9.92E-01 and 1.02E+00 and 1.18E+00"}, {"measurement": "TR-FRET dose-response, normalized signal (SI Fig 11)", "setting": "[2]; Log[inhibitor] (M) -7.108", "value": "9.11E-01 and 9.16E-01 and 8.81E-01"}, {"measurement": "normalized TR-FRET ligand displacement signal, dose-response replicates (SI Fig 6)", "setting": "[2]; Log[inhibitor] (M) -7.409", "value": "8.86E-01 and 9.18E-01 and 1.10E+00"}, {"measurement": "TR-FRET dose-response, normalized signal (SI Fig 11)", "setting": "[2]; Log[inhibitor] (M) -7.409", "value": "9.21E-01 and 9.28E-01 and 9.54E-01"}, {"measurement": "normalized TR-FRET ligand displacement signal, dose-response replicates (SI Fig 6)", "setting": "[2]; Log[inhibitor] (M) -7.710", "value": "1.00E+00 and 9.56E-01 and 9.99E-01"}, {"measurement": "TR-FRET dose-response, normalized signal (SI Fig 11)", "setting": "[2]; Log[inhibitor] (M) -7.710", "value": "9.54E-01 and 9.03E-01 and 9.47E-01"}, {"measurement": "normalized TR-FRET ligand displacement signal, dose-response replicates (SI Fig 6)", "setting": "[2]; Log[inhibitor] (M) -8.000", "value": "1.08E+00 and 9.18E-01 and 9.67E-01"}, {"measurement": "TR-FRET dose-response, normalized signal (SI Fig 11)", "setting": "[2]; Log[inhibitor] (M) -8.000", "value": "9.82E-01 and 9.20E-01 and 9.02E-01"}, {"measurement": "normalized TR-FRET ligand displacement signal, dose-response replicates (SI Fig 6)", "setting": "[2]; Log[inhibitor] (M) -8.301", "value": "9.61E-01 and 8.84E-01 and 1.00E+00"}, {"measurement": "TR-FRET dose-response, normalized signal (SI Fig 11)", "setting": "[2]; Log[inhibitor] (M) -8.301", "value": "9.50E-01 and 9.79E-01 and 9.60E-01"}, {"measurement": "normalized TR-FRET ligand displacement signal, dose-response replicates (SI Fig 6)", "setting": "[2]; Log[inhibitor] (M) -8.602", "value": "9.71E-01 and 1.01E+00 and 8.97E-01"}, {"measurement": "TR-FRET dose-response, normalized signal (SI Fig 11)", "setting": "[2]; Log[inhibitor] (M) -8.602", "value": "9.46E-01 and 9.17E-01 and 9.64E-01"}, {"measurement": "normalized TR-FRET ligand displacement signal, dose-response replicates (SI Fig 6)", "setting": "[2]; Log[inhibitor] (M) -9.000", "value": "9.83E-01 and 9.95E-01 and 9.23E-01"}, {"measurement": "TR-FRET dose-response, normalized signal (SI Fig 11)", "setting": "[2]; Log[inhibitor] (M) -9.000", "value": "9.65E-01 and 9.90E-01 and 9.18E-01"}, {"measurement": "normalized TR-FRET ligand displacement signal, dose-response replicates (SI Fig 6)", "setting": "[2]; Log[inhibitor] (M) -9.301", "value": "9.67E-01 and 9.33E-01 and 1.01E+00"}, {"measurement": "TR-FRET dose-response, normalized signal (SI Fig 11)", "setting": "[2]; Log[inhibitor] (M) -9.301", "value": "9.51E-01 and 9.69E-01 and 8.77E-01"}]}
